Measured values: patent publication US20040127403A1, “Methods for treating and preventing Gram-positive bacteremias” (priority 2002, published 2004)

Experiments:
Test in all cases: MIC, NCCLS broth microdilution
Type in all cases: cell-based
E. faecium A6349 Line-R = conditions: Enterococcus faecium, A6349LINER
Procedure: (§1) The efficacy of ramoplanin was tested against recently isolated VRE that are resistant to linezolid and quinupristin/dalfopristin. The culture media containing ramoplanin was supplemented with 0.02% bovine serum albumin (BSA) to prevent ramoplanin binding to the plastic. MIC values were determined in both cation-adjusted Mueller-Hinton broth (CAMHB) and trypticase soy broth (TSB) by the National Committee for Clinical Laboratory Standards (NCCLS) broth microdilution method. Macromolecular biosynthesis experiments were done by following the incorporation of carbon-14-labeled N-acetylglucosamine, acetic acid, amino acids, uridine, and thymidine into peptidoglycan, fatty acid, protein, RNA and DNA, respectively.

S. epidermidis ATCC14990 = conditions: Staphylococcus epidermidis, ATCC14990, S. epidermidis ATCC14990
Procedure: as §1

E. faecium A6343 Line-R = conditions: Enterococcus faecium, A6343LINER
Procedure: as §1

E. faecium A-5960 Line-R = conditions: Enterococcus faecium, A5960LINER
Procedure: as §1

E. faecium A5959 Line-R = conditions: Enterococcus faecium, A5959LINER
Procedure: as §1

S. aureus ATCC43300 MRSA = test system: S. aureus ATCC43300 MRSA
Procedure: as §1

S. epidermidis ATCC35983 = conditions: Staphylococcus epidermidis, ATCC35983, S. epidermidis ATCC35983
Procedure: as §1

E. faecium 1836 = conditions: Enterococcus faecium, 1836, E. faecium 1836
Procedure: as §1

S. aureus ATCC35556 MRSA = conditions: Staphylococcus aureus
Procedure: as §1

E. faecium UA392 = conditions: Enterococcus faecium, UA392, E. faecium UA392
Procedure: as §1

E. faecalis ATCC51299 = conditions: Enterococcus faecalis, ATCC51299, E. faecalis ATCC51299
Procedure: as §1

E. gallinarum UA604 = conditions: Enterococcus gallinarum, GALLINARUM
Procedure: as §1

E. faecium A2735 Syn-R = conditions: Enterococcus faecium, A2735SYNR
Procedure: as §1

E. faecium A6350 Line-R = conditions: Enterococcus faecium, A6350LINER
Procedure: as §1

E. faecalis A7789 Line-R = conditions: Enterococcus faecalis, A7789LINER
Procedure: as §1

S. aureus ATCC19636 MSSA = conditions: Staphylococcus aureus
Procedure: as §1

E. faecium A4192 Syn-R = conditions: Enterococcus faecium, A4192SYNR
Procedure: as §1

E. faecium A6345 Line-R = conditions: for MIC: Enterococcus faecium, A6345LINER, E. faecium A6345 Line-R
Procedure: as §1

S. aureus ATCC12600 MRSA = conditions: Staphylococcus aureus
Procedure: as §1

S. epidermidis ATCC12228 = conditions: Staphylococcus epidermidis, ATCC12228, S. epidermidis ATCC12228
Procedure: as §1

[1] = test system: S. aureus ATCC700699 MRSA/VISA
Procedure: as §1

E. faecium ATCC700221 = conditions: Enterococcus faecium, ATCC700221, E. faecium ATCC700221
Procedure: as §1

E. faecalis ATCC29212 = conditions: Enterococcus faecalis, ATCC29212, E. faecalis ATCC29212
Procedure: as §1

CN[C@H](CC(C)C)C(=O)N[C@H]1C(=O)N[C@@H](CC(N)=O)C(=O)N[C@H]2C(=O)N[C@H]3C(=O)N[C@H](C(=O)N[C@H](C(=O)O)c4cc(O)cc(O)c4-c4cc3ccc4O)[C@H](O)c3ccc(c(Cl)c3)Oc3cc2cc(c3O[C@@H]2O[C@H](CO)[C@@H](O)[C@H](O)[C@H]2O[C@H]2C[C@](C)(N)[C@H](O)[C@H](C)O2)Oc2ccc(cc2Cl)[C@H]1O [Vancomycin]
32 µg/mL: MIC (E. faecalis ATCC51299; Table 6, 2nd)
0.5 µg/mL: MIC (E. gallinarum UA604; Table 6, 1st) | MIC (E. gallinarum UA604; Table 6, 2nd)
4 µg/mL: MIC (S. epidermidis ATCC14990; CAMHB) | MIC (S. epidermidis ATCC14990; TSB) | MIC (S. epidermidis ATCC35983; CAMHB) | MIC (S. epidermidis ATCC35983; TSB) | MIC (S. epidermidis ATCC12228; CAMHB) | MIC (S. epidermidis ATCC12228; TSB) | MIC (E. faecalis ATCC29212; CAMHB)
> 16 µg/mL: MIC (E. faecium A6349 Line-R; Table 6, 1st) | MIC (E. faecium A-5960 Line-R; CAMHB) | MIC (E. faecium A-5960 Line-R; TSB) | MIC (E. faecium A-5960 Line-R; Table 6, 1st) | MIC (E. faecium A5959 Line-R; CAMHB) | MIC (E. faecium A5959 Line-R; TSB) | MIC (E. faecium A5959 Line-R; Table 6, 1st) | MIC (E. faecium 1836; CAMHB) | MIC (E. faecium 1836; TSB) | MIC (E. faecium 1836; Table 6, 1st) | MIC (S. aureus ATCC35556 MRSA; TSB) | MIC (E. faecalis ATCC51299; CAMHB) | MIC (E. faecalis ATCC51299; TSB) | MIC (E. faecalis ATCC51299; Table 6, 1st) | MIC (E. faecium A2735 Syn-R; CAMHB) | MIC (E. faecium A2735 Syn-R; TSB) | MIC (E. faecium A2735 Syn-R; Table 6, 1st) | MIC (S. aureus ATCC19636 MSSA; TSB) | MIC (E. faecium A4192 Syn-R; CAMHB) | MIC (E. faecium A4192 Syn-R; TSB) | MIC (E. faecium A4192 Syn-R; Table 6, 1st) | MIC (E. faecium A6345 Line-R; CAMHB) | MIC (E. faecium A6345 Line-R; TSB) | MIC (E. faecium A6345 Line-R; Table 6, 1st) | MIC (E. faecium ATCC700221; CAMHB) | MIC (E. faecium ATCC700221; TSB) | MIC (E. faecium ATCC700221; Table 6, 1st)
1 µg/mL: MIC (E. faecium A6343 Line-R; Table 6, 1st) | MIC (E. faecium A6343 Line-R; Table 6, 2nd) | MIC (S. aureus ATCC43300 MRSA; S. aureus ATCC43300 MRSA/VISA, Table 6, 2nd) | MIC (S. aureus ATCC43300 MRSA; Staphylococcus aureus, ATCC 43300 / MRSA / VISA) | MIC (S. aureus ATCC35556 MRSA; CAMHB) | MIC (S. aureus ATCC35556 MRSA; Table 6, 1st) | MIC (S. aureus ATCC35556 MRSA; Table 6, 2nd) | MIC (E. faecium UA392; CAMHB) | MIC (E. gallinarum UA604; CAMHB) | MIC (E. faecium A6350 Line-R; Table 6, 1st) | MIC (E. faecium A6350 Line-R; Table 6, 2nd) | MIC (E. faecalis A7789 Line-R; Table 6, 1st) | MIC (E. faecalis A7789 Line-R; Table 6, 2nd) | MIC (S. aureus ATCC19636 MSSA; Table 6, 1st) | MIC (S. aureus ATCC19636 MSSA; Table 6, 2nd) | MIC (S. aureus ATCC12600 MRSA; Table 6, 1st) | MIC (S. aureus ATCC12600 MRSA; Table 6, 2nd)
>64 µg/mL: reference MIC for strains used for killing curve (E. faecium A6345 Line-R; E. faecium A6345 Line-R. as printed, second row of Table 3) | reference MIC for strains used for killing curve (E. faecium A6345 Line-R; E. faecium A6345 Line-R., first row of Table 3)
> 64 µg/mL: MIC (E. faecium A6349 Line-R; Table 6, 2nd) | MIC (E. faecium A-5960 Line-R; Table 6, 2nd) | MIC (E. faecium A5959 Line-R; Table 6, 2nd) | MIC (E. faecium 1836; Table 6, 2nd) | MIC (E. faecium A2735 Syn-R; Table 6, 2nd) | MIC (E. faecium A4192 Syn-R; Table 6, 2nd) | MIC (E. faecium A6345 Line-R; Table 6, 2nd) | MIC (E. faecium ATCC700221; Table 6, 2nd)
2, 2 μg/ml: MIC (S. aureus ATCC43300 MRSA; S. aureus ATCC43300 MRSA, TSB) | MIC ([1]; S. aureus ATCC700699 MRSA/VISA, TSB)
2 µg/mL: MIC (S. epidermidis ATCC14990; Table 6, 1st) | MIC (S. epidermidis ATCC14990; Table 6, 2nd) | MIC (E. faecium A6343 Line-R; CAMHB) | MIC (E. faecium A6343 Line-R; TSB) | MIC (S. aureus ATCC43300 MRSA; Staphylococcus aureus) | MIC (S. epidermidis ATCC35983; Table 6, 1st) | MIC (S. epidermidis ATCC35983; Table 6, 2nd) | MIC (E. faecium UA392; TSB) | MIC (E. faecium UA392; Table 6, 1st) | MIC (E. faecium UA392; Table 6, 2nd) | MIC (E. gallinarum UA604; TSB) | MIC (E. faecium A6350 Line-R; CAMHB) | MIC (E. faecium A6350 Line-R; TSB) | MIC (E. faecalis A7789 Line-R; CAMHB) | MIC (E. faecalis A7789 Line-R; TSB) | MIC (S. aureus ATCC19636 MSSA; CAMHB) | MIC (S. aureus ATCC12600 MRSA; CAMHB) | MIC (S. aureus ATCC12600 MRSA; TSB) | MIC (S. epidermidis ATCC12228; Table 6, 1st) | MIC (S. epidermidis ATCC12228; Table 6, 2nd) | MIC ([1]; S. aureus ATCC700699 MRSA/VISA, Table 6, 1st) | MIC ([1]; S. aureus ATCC700699 MRSA/VISA, Table 6, 2nd) | MIC ([1]; Staphylococcus aureus) | MIC (E. faecalis ATCC29212; Table 6, 1st) | MIC (E. faecalis ATCC29212; Table 6, 2nd)
